≈ marks a conversion by molar mass, not a printed value. Where two headings read alike, the source gives them in different places.
How the values were obtained:
[1] = test system: P. aeruginosa ATCC 27853 (APAE001); experiment: MIC, CLSI broth microdilution; type: cell-based; settings: Pseudomonas aeruginosa
Procedure: (§1) Minimum inhibitory concentrations (MIC) were determined by reference Clinical and Laboratory Standards Institute (CLSI) broth microdilution methods per M7-A7 [2006]. Quality control ranges utilizing E. coli ATCC 25922, P. aeruginosa ATCC 27853 and S. aureus ATCC 29213, and interpretive criteria for comparator agents were as published in CLSI M100-S17 [2007]. Briefly, serial two-fold dilutions of the test compounds were prepared at 2× concentration in Mueller Hinton Broth. The compound dilutions were mixed in 96-well assay plates in a 1:1 ratio with bacterial inoculum. The inoculum was prepared by suspension of a colony from an agar plate that was prepared the previous day. Bacteria were suspended in sterile saline and added to each assay plate to obtain a final concentration of 5×10^5 CFU/mL. The plates were incubated at 35° C. for 20 hours in ambient air.

[2] = test system: E. coli ATCC 25922 (AECO001); experiment: MIC, CLSI broth microdilution; type: cell-based; settings: Escherichia coli
Procedure: as §1

[3] = ATCC27853, read-out: MIC APAE001, Table 1, APAE001 is ATCC27853
[4] = ATCC25922, read-out: MIC AECO001, Table 1, AECO001 is ATCC25922

Row | SMILES | MIC [1, 3] [µg/mL] | MIC [2, 4] [µg/mL] | MIC ([1]; ATCC27853, Table 2, read-out: MIC P. aeruginosa) [µg/mL] | MIC ([2]; ATCC25922, Table 2, read-out: MIC E. coli) [µg/mL] | MIC ([2]; Table 1, AECO001 is ATCC25922, read-out: MIC AECO001) [µg/mL]
1 | CN[C@@H]1[C@@H](O)[C@@H](O[C@@H]2[C@@H](O)[C@H](O[C@H]3OC(CNCC4CC(N)C4)=CC[C@H]3N)[C@@H](N)C[C@H]2NC(=O)[C@@H](O)CCN)OC[C@]1(C)O (stereo partly drawn) [Example 33, 6′-(Methyl-trans-3-amino-cyclobutyl)-1-(4-amino-2(S)-hydroxy-butyryl)-sisomicin] | 1 to 16 (≈ 1.58 to 25.3 µM) | < 1 |  |  | 
2 | CN[C@@H]1[C@@H](O)[C@@H](O[C@@H]2[C@@H](O)[C@H](O[C@H]3OC(CNCC(O)CCN)=CC[C@H]3N)[C@@H](N)C[C@H]2NC(=O)C2(O)CCNC2)OC[C@]1(C)O (stereo partly drawn) [Example 35] | 1 to 16 (≈ 1.54 to 24.7 µM) | < 1 |  |  | 
3 | CN[C@@H]1[C@@H](O)[C@@H](O[C@@H]2[C@@H](O)[C@H](O[C@H]3OC(CNCCO)=CC[C@H]3N)[C@@H](N)C[C@H]2NC(=O)C2(O)CNC2)OC[C@]1(C)O [Example 37] | 1 to 16 (≈ 1.69 to 27.1 µM) | < 1 |  |  | 
4 | CN[C@@H]1[C@@H](O)[C@@H](O[C@@H]2[C@@H](O)[C@H](O[C@H]3OC(CNCCN)=CC[C@H]3N)[C@@H](N)C[C@H]2NC(=O)[C@@H](O)CCN)OC[C@]1(C)O [Example 38, 6′-(2-Amino-ethyl)-1-(4-amino-2(S)-hydroxy-butyryl)-sisomicin] | 1 to 16 (≈ 1.69 to 27 µM) | < 1 |  |  | 
5 | CN[C@@H]1[C@@H](O)[C@@H](O[C@@H]2[C@@H](O)[C@H](O[C@H]3OC(CNCCCN)=CC[C@H]3N)[C@@H](N)C[C@H]2NC(=O)C2(O)CCNC2)OC[C@]1(C)O (stereo partly drawn) [Example 40] | 1 to 16 (≈ 1.62 to 25.9 µM) | 1 to 16 (≈ 1.62 to 25.9 µM) |  |  | 
6 | CN[C@@H]1[C@@H](O)[C@@H](O[C@@H]2[C@@H](O)[C@H](O[C@H]3OC(CNCC4CC4)=CC[C@H]3N)[C@@H](N)C[C@H]2NC(=O)C2(O)CCNC2)OC[C@]1(C)O (stereo partly drawn) [Example 41] | 1 to 16 (≈ 1.63 to 26 µM) | < 1 |  |  | 
7 | CN[C@@H]1[C@@H](O)[C@@H](O[C@@H]2[C@@H](O)[C@H](O[C@H]3OC(CNCC(O)CN)=CC[C@H]3N)[C@@H](N)C[C@H]2NC(=O)C2(O)CCNC2)OC[C@]1(C)O (stereo partly drawn) [Example 42, 6′-(2-Hydroxy-3-amino-propyl)-1-(3-hydroxy-pyrrolidin-3-yl-acetyl)-sisomicin] | 1 to 16 (≈ 1.58 to 25.2 µM) | 1 to 16 (≈ 1.58 to 25.2 µM) |  |  | 
8 | CN[C@@H]1[C@@H](O)[C@@H](O[C@@H]2[C@@H](O)[C@H](O[C@H]3OC(CNCCCCN)=CC[C@H]3N)[C@@H](N)C[C@H]2NC(=O)[C@@H](O)CCN)OC[C@]1(C)O [Example 43, 6′-(4-Amino-butyl)-1-(4-amino-2(S)-hydroxy-butyryl)-sisomicin] | < 1 | < 1 |  |  | 
9 | CN[C@@H]1[C@@H](O)[C@@H](O[C@@H]2[C@@H](O)[C@H](O[C@H]3OC(CNCCCCCN)=CC[C@H]3N)[C@@H](N)C[C@H]2NC(=O)[C@@H](O)CCN)OC[C@]1(C)O [Example 44, 6′-(5-Amino-pentyl)-1-(4-amino-2(S)-hydroxy-butyryl)-sisomicin] | 1 to 16 (≈ 1.58 to 25.2 µM) | < 1 |  |  | 
10 | CN[C@@H]1[C@@H](O)[C@@H](O[C@@H]2[C@@H](O)[C@H](O[C@H]3OC(CNCC4(O)CC(N)C4)=CC[C@H]3N)[C@@H](N)C[C@H]2NC(=O)[C@@H](O)CCN)OC[C@]1(C)O (stereo partly drawn) [Example 46] | 1 to 16 (≈ 1.54 to 24.7 µM) | < 1 |  |  | 
11 | CN[C@@H]1[C@@H](O)[C@@H](O[C@@H]2[C@@H](O)[C@H](O[C@H]3OC(CNCC4(O)CC(N)C4)=CC[C@H]3N)[C@@H](N)C[C@H]2NC(=O)C2(O)CNC2)OC[C@]1(C)O (stereo partly drawn) [Example 47] | 1 to 16 (≈ 1.55 to 24.8 µM) | 1 to 16 (≈ 1.55 to 24.8 µM) |  |  | 
12 | CN[C@@H]1[C@@H](O)[C@@H](O[C@@H]2[C@@H](O)[C@H](O[C@H]3OC(CNCC4CCCN4)=CC[C@H]3N)[C@@H](N)C[C@H]2NC(=O)[C@@H](O)CCN)OC[C@]1(C)O (stereo partly drawn) [Example 49, 6′-(Methyl-pyrrolidin-2-yl)-1-(4-amino-2(S)-hydroxy-butyryl)-sisomicin] | 1 to 16 (≈ 1.58 to 25.3 µM) | < 1 |  |  | 
13 | CN[C@@H]1[C@@H](O)[C@@H](O[C@@H]2[C@@H](O)[C@H](O[C@H]3OC(CNC[C@H](O)C(=O)O)=CC[C@H]3N)[C@@H](N)C[C@H]2NC(=O)[C@@H](O)CCN)OC[C@]1(C)O [Example 50, 6′-(2(S)-Hydroxy-3-propanoic)-1-(4-amino-2(S)-hydroxy-butyryl)-sisomicin] | > 16 | > 16 |  |  | 
14 | CN[C@@H]1[C@@H](O)[C@@H](O[C@@H]2[C@@H](O)[C@H](O[C@H]3OC(CNCC(C)(C)CN)=CC[C@H]3N)[C@@H](N)C[C@H]2NC(=O)[C@@H](O)CN)OC[C@]1(C)O [Example 51, 6′-(2,2-Dimethyl-3-amino-propyl)-1-(3-amino-2(S)-hydroxy-propionyl)-sisomicin] | > 16 | < 1 |  |  | 
15 | CN[C@@H]1[C@@H](O)[C@@H](O[C@@H]2[C@@H](O)[C@H](O[C@H]3OC(CNCCC(N)C4CC4)=CC[C@H]3N)[C@@H](N)C[C@H]2NC(=O)[C@@H](O)CN)OC[C@]1(C)O (stereo partly drawn) [Example 52, 6′-(3-Amino-3-cyclopropyl-propyl)-1-(3-amino-2(S)-hydroxy-propionyl)-sisomicin] | 1 to 16 (≈ 1.58 to 25.3 µM) | < 1 |  |  | 
16 | CN[C@@H]1[C@@H](O)[C@@H](O[C@@H]2[C@@H](O)[C@H](O[C@H]3OC(CNC[C@H]4C[C@H](O)CN4)=CC[C@H]3N)[C@@H](N)C[C@H]2NC(=O)[C@@H](O)CN)OC[C@]1(C)O [Example 53, 6′-(Methyl-4(S)-hydroxy-pyrrolidin-2(R)-yl)-1-(3-amino-2(S)-hydroxy-propionyl)-sisomicin] | > 16 | 1 to 16 (≈ 1.58 to 25.2 µM) |  |  | 
17 | CN[C@@H]1[C@@H](O)[C@@H](O[C@@H]2[C@@H](O)[C@H](O[C@H]3OC(CNCCCO)=CC[C@H]3N)[C@@H](N)C[C@H]2NC(=O)[C@@H](O)CN)OC[C@]1(C)O [Example 54, 6′-(3-Propanol)-1-(3-amino-2(S)-hydroxy-propionyl)-sisomicin] | 1 to 16 (≈ 1.69 to 27 µM) | < 1 |  |  | 
18 | CN[C@@H]1[C@@H](O)[C@@H](O[C@@H]2[C@@H](O)[C@H](O[C@H]3OC(CNCC(C)(C)N)=CC[C@H]3N)[C@@H](N)C[C@H]2NC(=O)[C@@H](O)CN)OC[C@]1(C)O [Example 55, 6′-(2-Methyl-2-amino-propyl)-1-(3-amino-2(S)-hydroxy-propionyl)-sisomicin] | > 16 | 1 to 16 (≈ 1.65 to 26.4 µM) |  |  | 
19 | CN[C@@H]1[C@@H](O)[C@@H](O[C@@H]2[C@@H](O)[C@H](O[C@H]3OC(CNCC4(N)CCC4)=CC[C@H]3N)[C@@H](N)C[C@H]2NC(=O)[C@@H](O)CN)OC[C@]1(C)O [Example 56, 6′-(Methyl-1-amino-cyclobutyl)-1-(3-amino-2(S)-hydroxy-propionyl)-sisomicin] | > 16 | < 1 |  |  | 
20 | CN[C@@H]1[C@@H](O)[C@@H](O[C@@H]2[C@@H](O)[C@H](O[C@H]3OC(CNCCCN)=CC[C@H]3N)[C@@H](N)C[C@H]2NC(=O)C2(O)CNC2)OC[C@]1(C)O [Example 57] |  |  | < 1 | < 1 | < 1
21 | CN[C@@H]1[C@@H](O)[C@@H](O[C@@H]2[C@@H](O)[C@H](O[C@H]3OC(CNC[C@H]4C[C@H](N)C4)=CC[C@H]3N)[C@@H](N)C[C@H]2NC(=O)[C@@H](O)CN)OC[C@]1(C)O [Example 59, 6′-(Methyl-trans-3-amino-cyclobutyl)-1-(3-amino-2(S)-hydroxy-propionyl)-sisomicin] | 1 to 16 (≈ 1.62 to 25.9 µM) | < 1 |  |  | 
22 | CN[C@@H]1[C@@H](O)[C@@H](O[C@@H]2[C@@H](O)[C@H](O[C@H]3OC(CNC[C@H]4C[C@H](N)C4)=CC[C@H]3N)[C@@H](N)C[C@H]2NC(=O)C2(O)CC(N)C2)OC[C@]1(C)O (stereo partly drawn) [Example 60] | 1 to 16 (≈ 1.55 to 24.9 µM) | < 1 |  |  | 

Source: patent US20120214760A1, “TREATMENT OF URINARY TRACT INFECTIONS WITH ANTIBACTERIAL AMINOGLYCOSIDE COMPOUNDS” (Achaogen, Inc., priority 2009, published 2012)
